Measurements as given in PubChem BioAssay AID1259407 (Chemical Carcinogenesis Research Information System (CCRIS), 2018).
Calls of active or inactive are those of the source. How the calls were made is not given here.

System: CCRIS mutagenicity, Ames/micronucleus/aberration tests
Assay: CCRIS mutagenicity studies
[1] = Test System: AMES SALMONELLA TYPHIMURIUM, Strain/Indicator: TA98, Metabolic Activation: HAMSTER, LIVER, S-9, AROCLOR 1254 (30%), Method: PREINCUBATION
[2] = Test System: AMES SALMONELLA TYPHIMURIUM, Strain/Indicator: TA98, Metabolic Activation: NONE, Method: PREINCUBATION
[3] = Test System: AMES SALMONELLA TYPHIMURIUM, Strain/Indicator: TA98, Metabolic Activation: RAT, LIVER, S-9, AROCLOR 1254 (30%), Method: PREINCUBATION
[4] = Test System: AMES SALMONELLA TYPHIMURIUM, Strain/Indicator: TA100, Metabolic Activation: HAMSTER, LIVER, S-9, AROCLOR 1254 (30%), Method: PREINCUBATION
[5] = Test System: AMES SALMONELLA TYPHIMURIUM, Strain/Indicator: TA100, Metabolic Activation: NONE, Method: PREINCUBATION
[6] = Test System: AMES SALMONELLA TYPHIMURIUM, Strain/Indicator: TA100, Metabolic Activation: RAT, LIVER, S-9, AROCLOR 1254 (30%), Method: PREINCUBATION
[7] = Test System: AMES SALMONELLA TYPHIMURIUM, Strain/Indicator: TA98, Metabolic Activation: NONE, Method: STANDARD PLATE
[8] = Test System: AMES SALMONELLA TYPHIMURIUM, Strain/Indicator: TA100, Metabolic Activation: NONE, Method: STANDARD PLATE
[9] = Test System: AMES SALMONELLA TYPHIMURIUM, Strain/Indicator: TA98, Metabolic Activation: RAT, LIVER, S-9, AROCLOR 1254, Method: STANDARD PLATE
[10] = Test System: AMES SALMONELLA TYPHIMURIUM, Strain/Indicator: TA100, Metabolic Activation: RAT, LIVER, S-9, AROCLOR 1254, Method: STANDARD PLATE
[11] = Test System: AMES SALMONELLA TYPHIMURIUM, Strain/Indicator: TA1535, Metabolic Activation: NONE, Method: STANDARD PLATE
[12] = Test System: AMES SALMONELLA TYPHIMURIUM, Strain/Indicator: TA1535, Metabolic Activation: RAT, LIVER, S-9, AROCLOR 1254, Method: STANDARD PLATE
[13] = Test System: AMES SALMONELLA TYPHIMURIUM, Strain/Indicator: TA1537, Metabolic Activation: NONE, Method: STANDARD PLATE
[14] = Test System: AMES SALMONELLA TYPHIMURIUM, Strain/Indicator: TA1537, Metabolic Activation: RAT, LIVER, S-9, AROCLOR 1254, Method: STANDARD PLATE
[15] = Test System: AMES SALMONELLA TYPHIMURIUM, Strain/Indicator: TA1538, Metabolic Activation: NONE, Method: STANDARD PLATE
[16] = Test System: AMES SALMONELLA TYPHIMURIUM, Strain/Indicator: TA1538, Metabolic Activation: RAT, LIVER, S-9, AROCLOR 1254, Method: STANDARD PLATE

Compound: Cc1ccc2cccnc2c1
- mutagenic call [1]: active; positive
- mutagenic call [2]: inactive; negative
- mutagenic call [3]: inactive; negative
- mutagenic call [4]: active; positive
- mutagenic call [5]: inactive; negative
- mutagenic call [6]: active; positive
- mutagenic call (Test System: AMES SALMONELLA TYPHIMURIUM, Strain/Indicator: TA100, Metabolic Activation: RAT, LIVER, S-9, PHENOBARBITAL AND 5,6-BENZOFLAVONE, Method: PREINCUBATION): active; positive
- mutagenic call (Test System: AMES SALMONELLA TYPHIMURIUM, Strain/Indicator: TA100, Metabolic Activation: RAT, LIVER, S-9, PHENOBARBITAL AND 5,6-NAPHTHOFLAVONE, Method: PREINCUBATION): active; positive
- mutagenic call (Test System: AMES SALMONELLA TYPHIMURIUM, Strain/Indicator: TA100, Metabolic Activation: RAT, LIVER, S-9, Method: PREINCUBATION): active; positive

Compound: Cc1c(/C=N/OCc2cccc([N+](=O)[O-])c2)c2cc([N+](=O)[O-])ccc2n1Cc1ccccc1
- mutagenic call [7]: active; positive
- mutagenic call (Test System: AMES SALMONELLA TYPHIMURIUM, Strain/Indicator: TA98, Metabolic Activation: RAT, LIVER, S-9, PHENOBARBITAL AND BETA-NAPHTHOFLAVONE, Method: STANDARD PLATE): active; positive
- mutagenic call [8]: active; positive
- mutagenic call (Test System: AMES SALMONELLA TYPHIMURIUM, Strain/Indicator: TA100, Metabolic Activation: RAT, LIVER, S-9, PHENOBARBITAL AND BETA-NAPHTHOFLAVONE, Method: STANDARD PLATE): active; positive

Compound: Cc1nc2ccc3c(nc(N)n3C)c2nc1C
- mutagenic call [9]: active; positive

Compound: Oc1cc2cc3ccccc3cc2c2ccccc12
- mutagenic call (Test System: CHINESE HAMSTER V-79, Strain/Indicator: V-79/8-AZAGUANINE, Metabolic Activation: NONE, Method: STANDARD PLATE): active; positive

Compound: Nc1ncnc2c1nc(Cl)n2[C@@H]1O[C@@H]2COP(=O)(O)O[C@H]2[C@H]1O
- mutagenic call (End Point: IN VIVO CHROMOSOMAL ABERRATIONS, Test System: BONE MARROW, Species: MOUSE, Strain/Sex: BALB/C, Route: IP): active; positive (structural and ploidy changes)
- mutagenic call (End Point: IN VIVO MICRONUCLEUS, Test System: BONE MARROW, Species: MOUSE, Strain/Sex: BALB/C, Route: IP): active; positive
- mutagenic call (Test System: MOUSE LYMPHOMA, Strain/Indicator: L5178Y (TK+/TK-), Metabolic Activation: NONE, Method: SUSPENSION/PLATE): inactive; negative. reevaluation of results: negative
- mutagenic call (Test System: MOUSE LYMPHOMA, Strain/Indicator: L5178Y (TK+/TK-), Metabolic Activation: RAT, LIVER, S-9, AROCLOR 1254, Method: SUSPENSION/PLATE): inactive; negative. reevaluation of results: negative

Compound: C/C=C/C=C/C(=O)O
- mutagenic call (Test System: AMES SALMONELLA TYPHIMURIUM, Strain/Indicator: TA97A, Metabolic Activation: NONE, Method: PREINCUBATION): inactive; negative
- mutagenic call (Test System: AMES SALMONELLA TYPHIMURIUM, Strain/Indicator: TA97A, Metabolic Activation: RAT, LIVER, S-9, AROCLOR 1254, Method: PREINCUBATION): inactive; negative
- mutagenic call (Test System: AMES SALMONELLA TYPHIMURIUM, Strain/Indicator: TA102, Metabolic Activation: NONE, Method: PREINCUBATION): inactive; negative
- mutagenic call (Test System: AMES SALMONELLA TYPHIMURIUM, Strain/Indicator: TA102, Metabolic Activation: RAT, LIVER, S-9, AROCLOR 1254, Method: PREINCUBATION): inactive; negative
- mutagenic call (Test System: CHINESE HAMSTER V-79, Strain/Indicator: V-79/6-THIOGUANINE, Metabolic Activation: NONE, Method: FLASK ASSAY): active; positive

Compound: O=C(/C=C/c1ccccc1)c1ccc(F)cc1
- mutagenic call [7]: inactive; negative
- mutagenic call [9]: inactive; negative
- mutagenic call [8]: inactive; negative
- mutagenic call [10]: inactive; negative

Compound: OCC(O)CI (configuration not stated)
- mutagenic call [1]: inactive; negative
- mutagenic call [2]: inactive; negative
- mutagenic call [3]: inactive; negative
- mutagenic call [4]: active; positive
- mutagenic call [5]: active; positive
- mutagenic call [6]: active; positive

Compound: O=[N+]([O-])c1cc(C(F)(F)F)cc([N+](=O)[O-])c1Cl
- mutagenic call [7]: inactive; negative
- mutagenic call [9]: inactive; negative
- mutagenic call [8]: inactive; negative
- mutagenic call [10]: inactive; negative
- mutagenic call [11]: inactive; negative
- mutagenic call [12]: inactive; negative
- mutagenic call [13]: inactive; negative
- mutagenic call [14]: inactive; negative
- mutagenic call [15]: inactive; negative
- mutagenic call [16]: inactive; negative

Compound: CC(=O)Nc1ccc2ccccc2n1
- mutagenic call [2]: inactive; negative
- mutagenic call (Test System: AMES SALMONELLA TYPHIMURIUM, Strain/Indicator: TA98, Metabolic Activation: RAT, LIVER, S-9, KANECHLOR 500, Method: PREINCUBATION): inactive; negative
- mutagenic call [5]: inactive; negative
- mutagenic call (Test System: AMES SALMONELLA TYPHIMURIUM, Strain/Indicator: TA100, Metabolic Activation: RAT, LIVER, S-9, KANECHLOR 500, Method: PREINCUBATION): inactive; negative

Compound: CC(=O)Nc1ccc(Oc2ccc(Cl)cc2)cc1
- mutagenic call [8]: inactive; negative
- mutagenic call (Test System: AMES SALMONELLA TYPHIMURIUM, Strain/Indicator: TA100, Metabolic Activation: RAT, LIVER, S-9, KANECLOR 500, Method: STANDARD PLATE): active; positive

Compound: CN(C)CCn1cc[n+](C)c1/C=N/O
- mutagenic call (Test System: AMES SALMONELLA TYPHIMURIUM, Strain/Indicator: TA97, Metabolic Activation: NONE, Method: STANDARD PLATE): inactive; negative
- mutagenic call (Test System: AMES SALMONELLA TYPHIMURIUM, Strain/Indicator: TA97, Metabolic Activation: S-9, Method: STANDARD PLATE): inactive; negative
- mutagenic call [8]: inactive; negative
- mutagenic call (Test System: AMES SALMONELLA TYPHIMURIUM, Strain/Indicator: TA100, Metabolic Activation: S-9, Method: STANDARD PLATE): inactive; negative
- mutagenic call (Test System: AMES SALMONELLA TYPHIMURIUM, Strain/Indicator: TA104, Metabolic Activation: NONE, Method: STANDARD PLATE): inactive; negative
- mutagenic call (Test System: AMES SALMONELLA TYPHIMURIUM, Strain/Indicator: TA104, Metabolic Activation: S-9, Method: STANDARD PLATE): inactive; negative
- mutagenic call [13]: inactive; negative
- mutagenic call (Test System: AMES SALMONELLA TYPHIMURIUM, Strain/Indicator: TA1537, Metabolic Activation: S-9, Method: STANDARD PLATE): inactive; negative
- mutagenic call [15]: inactive; negative
- mutagenic call (Test System: AMES SALMONELLA TYPHIMURIUM, Strain/Indicator: TA1538, Metabolic Activation: S-9, Method: STANDARD PLATE): inactive; negative

Compound: COC(=O)[C@H]1O[C@@H]1c1ccccc1
- mutagenic call [7]: inactive; negative
- mutagenic call [9]: inactive; negative
- mutagenic call [10]: inactive; negative
- mutagenic call [11]: inactive; negative
- mutagenic call [12]: inactive; negative
- mutagenic call [13]: inactive; negative
- mutagenic call [14]: inactive; negative
- mutagenic call [15]: inactive; negative
- mutagenic call [16]: inactive; negative

Compound: C[C@]12CC[C@@H]3c4ccc(O)cc4CC[C@H]3C13CCC2(O)CC3
- mutagenic call (End Point: IN VITRO CHROMOSOMAL ABERRATIONS, Test System: HUMAN PERIPHERAL LYMPHOCYTES, Metabolic Activation: NONE): inactive; negative at 20-24 hr; positive (high doses) at 48 hr
- mutagenic call (End Point: IN VITRO CHROMOSOMAL ABERRATIONS, Test System: HUMAN PERIPHERAL LYMPHOCYTES, Metabolic Activation: RAT, LIVER, S-9, AROCLOR 1254): inactive; negative

Compound: [N-]=[N+]=Nc1ccc2c(Nc3ccc(NS(=O)(=O)CCCN)cc3)c3ccc(N=[N+]=[N-])cc3nc2c1
- mutagenic call [13]: active; positive
